Data taken from publication PMC8179049 (Chemical Science, 2020).
Where “and” joins values, the source holds several entries; their conditions need not be identical. Equal values may be shown once. Read-outs that look alike come from different tables or passages of the source.

How the values were obtained:
[1] = target: T1, human AspH (His6-AspH315-758) (Homo sapiens, UniProt Q12797); parameters: method as in PMID 33069066; details: ref 41a; read-out: IC50 (inhibition of AspH, literature); cited from earlier work
T1 construct: N-Terminally His6-tagged human AspH315-758 (His6-AspH315-758) was produced in Escherichia coli BL21 (DE3); made in house; host or cells: Escherichia coli BL21 (DE3), pET-28a(+) vector
T1 sequence (Q12797 315-758): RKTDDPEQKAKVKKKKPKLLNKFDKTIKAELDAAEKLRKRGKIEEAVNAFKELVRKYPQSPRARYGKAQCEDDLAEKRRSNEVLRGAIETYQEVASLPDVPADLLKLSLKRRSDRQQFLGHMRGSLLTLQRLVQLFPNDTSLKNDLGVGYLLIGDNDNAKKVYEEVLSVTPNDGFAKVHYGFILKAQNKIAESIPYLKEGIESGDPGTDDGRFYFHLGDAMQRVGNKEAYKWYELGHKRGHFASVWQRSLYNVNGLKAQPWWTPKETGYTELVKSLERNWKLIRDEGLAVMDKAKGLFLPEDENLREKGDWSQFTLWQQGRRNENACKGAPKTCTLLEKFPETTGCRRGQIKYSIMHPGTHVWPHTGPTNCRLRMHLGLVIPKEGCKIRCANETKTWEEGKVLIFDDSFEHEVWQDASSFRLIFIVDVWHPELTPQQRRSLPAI

[2] = target: T1, human AspH (His6-AspH315-758); assay: AspH steady-state kinetics by SPE-MS turnover assays; format: biochemical; details: for K app m / v app max: 0.1 μM His6-AspH315–758, 2.0 μM hFX-CP101–119, in the presence of LAA, mean ± SD, n = 3
Method: Supporting Figure S6. Initial hydroxylation rates of AspH-catalyzed peptide hydroxylations used to
Measurement times were normalized to the first sample injection analyzed after the addition of the Enzyme
(§1) The mass spectrometer parameters were:
(§2) Data were exported into Microsoft
(§3) The standard deviation (SD) of three
(§4) Z’-factors were calculated
9. Determination of kinetic parameters
(§5) in 50 mM HEPES buffer (pH 7.5).

human AspH = target: T2, human AspH (Homo sapiens, UniProt Q12797); assay: SPE-MS AspH turnover assay in the absence of 2OG (2OG derivative as cosubstrate); details: 330 μM 2OG or 2OG derivative, 0.1 μM AspH, 2 μM hFX-CP101-119, 50 μM FAS, t = 15 min;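 note: percent conversion = hydroxylated cyclic peptide peak area relative to summed substrate plus product areas, taken from +2 charge state ion chromatograms by solid phase extraction MS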
T2 sequence (Q12797 315-758): T1 sequence (Q12797 315-758)
Method: AspH assays were performed as described in the ESI, ^† data are shown as the mean of three independent runs (n = 3; mean ± standard deviation, SD).
AspH assays were performed as described in Section 9 of the Supporting Information using 0.1 μM AspH, 2 μM
a positive control in the SPE-MS AspH turnover assays (Entry 1).
dependent conversion of the AspH substrate hFX-CP101-119 (Supporting Figure S1d). %-Substrate conversion is
AspH assays were performed as
described in Section 9 of the Supporting Information using 0.1 μM AspH, 2 μM hFX-CP101-119, 50 μM FAS, 330
AspH inhibition assays were incubated for 6 rather than 7 minutes before the enzyme reaction was
stopped by the addition of 10%v/v aqueous formic acid.
MS-analyses were performed using a RapidFire RF 365 high-throughput sampling robot (Agilent) attached to an
iFunnel Agilent 6550 accurate mass quadrupole time-of-flight (Q-TOF) mass spectrometer operated in the positive
ionization mode. Assay samples were aspirated under vacuum for 0.4 s and loaded onto a C4 solid phase extraction (SPE) cartridge. After loading, the C4 SPE cartridge was washed with 0.1%v/v aqueous formic acid to remove
non-volatile buffer salts (5 s, 1.5 mL/min). The peptide was eluted from the SPE cartridge with 0.1%v/v aqueous
formic acid in 85/15v/v acetonitrile/water into the mass spectrometer (5 s, 1.25 mL/min) and the SPE cartridge re-
equilibrated with 0.1%v/v aqueous formic acid (1 s, 1.25 mL/min). The mass spectrometer parameters were:
capillary voltage (4000 V), nozzle voltage (1000 V), fragmentor voltage (365 V), gas temperature (280°C), gas
flow (13 L/min), sheath gas temperature (350°C), sheath gas flow (12 L/min). The m/z +2 charge states of the
cyclic peptide (substrate) and the hydroxylated cyclic peptide (product) were used to extract ion chromatogram
data, peak areas were integrated using RapidFire Integrator software (Agilent). Data were exported into Microsoft
Excel and used to calculate the % conversion of the hydroxylation reaction using the equation: % conversion =
100 x (integral product cyclic peptide) / (integral substrate cyclic peptide + integral product cyclic peptide).
Normalized dose-response curves (2,4-PDCA and DMSO controls) were obtained from the raw data by non-linear
regression (GraphPad Prism 5) and used to determine IC50-values. The standard deviation (SD) of three
independent IC50 determinations (n = 3) was calculated using GraphPad Prism 5. Z’-factors were calculated
according to the cited literature using Microsoft Excel (Supporting Figure S3).14

[3] = target: T1, human AspH (His6-AspH315-758); assay: NMR monitoring of AspH-catalyzed oxidative decarboxylation, with final SPE-MS analysis; format: biochemical; details: for time to complete AspH-catalyzed oxidative decarboxylation (NMR) / hydroxylation (conversion) of hFX-CP101-119 in the final reaction mixture by SPE-MS: 10 μM AspH, 150 μM cosubstrate; for AspH-catalyzed oxidative decarboxylation of the 2OG derivative (NMR): 10 μM His6-AspH315-758, 150 μM hFX-CP101-119, 150 μM 2OG derivative, 50 μM FAS, pH 7.5, 25 °C
Method: 2-methylsuccinate and terephthalate, respectively (continues on the following two pages). The AspH- […]
700 NMR machine equipped with a 5mm 1H(13C/15N) inverse cryoprobe. Assay conditions: 10 μM His6-AspH315- […]
iron(II) sulfate hexahydrate (FAS, (NH4)2Fe(SO4)2·6H2O) in 50 mM aqueous Tris-d11 containing 10 %v/v D2O (pH […]
product of the AspH-catalyzed reaction, was determined using SPE-MS (Supporting Information, Section 9) after […]
of the 1H NMR spectrum of commercial succinate in 50 mM aqueous Tris-d11 containing 10 %v/v D2O (pH 7.5, 25° […]
(1 picture or pasted object on this page, not shown here) […]
using a Bruker AVIII 700 NMR machine equipped with a 5mm 1H(13C/15N) inverse cryoprobe. Assay conditions: […]
ammonium iron(II) sulfate hexahydrate (FAS, (NH 4)2Fe(SO4)2·6H2O) in 50 mM aqueous Tris -d11 containing […]
which is the product of the AspH-catalyzed reaction, was determined using SPE-MS (Supporting Information, Section 9) after completion of the NMR experiments. […]
spectrum of synthetic 34 in 50 mM aqueous Tris-d11 containing 10 %v/v D2O (pH 7.5, 25° C); (b) Close-up (3.0-0.9 ppm) of the 1H NMR spectrum of commercial 2,2-dimethylsuccinate (52) in 50 mM aqueous Tris-d11

[4] = target: T1, human AspH (His6-AspH315-758); assay: SPE-MS AspH inhibition assay; format: biochemical; details: mean ± SD, n = 3
Method: 6. Recombinant AspH production and purification
N-Terminally His6-tagged human AspH315-758 (His6-AspH315-758) was produced in Escherichia coli BL21 (DE3) cells using a pET-28a(+) vector and purified by Ni(II)-affinity chromatography (HisTrap HP column, GE Healthcare; 1 mL/min flow rate) and size-exclusion chromatography (HiLoad 26/60 Superdex 75 pg 300 mL column; 1 mL/min) using an ÄKTA pure machine (GE Healthcare) as previously reported.1,4 AspH was >95% pure by SDS-PAGE and MS analysis and had the anticipated mass (calculated for His6-AspH315-758: 54519 Da, found: 54519 Da).1 Purified AspH was stored in 50 mM HEPES buffer (pH 7.5, 150 mM NaCl) at a concentration of 125 μM at -78 °C; fresh aliquots were used for all AspH assays.
7. AspH substrate synthesis
AspH substrates were designed based on the sequence of EGFD1 of human coagulation factor X (hFX amino acids 86-124), which is a reported cellular AspH substrate.2 All substrates were prepared with a C-terminal amide.
The hFX-EGFD186-124-4Ser peptide (hFX amino acids 86-124; Supporting Figure S1c),1 used for crystallography experiments, was synthesized by solid phase peptide synthesis (SPPS) and purified by GL Biochem (Shanghai) Ltd (Shanghai, China). The thioether linked cyclic peptide hFX-CP101-119 (hFX amino acids 101-119; Supporting
Figure S1d), which was used as substrate in AspH SPE-MS assays,4 was synthesized by an intramolecular thioetherification cyclization reaction from the corresponding linear peptide (D-Ala replacing Cys101hFX and Ser replacing Cys112hFX) which was obtained by microwave-assisted solid phase peptide synthesis using the Fmoc-protection strategy as described.4
8. AspH inhibition assays […]
water; ammonium iron(II) sulfate hexahydrate, FAS, (NH 4)2Fe(SO4)2·6H2O: 400 mM in 20 mM HCl diluted to 1 mM in Milli-Q® Ultrapure water) were freshly prepared each day from commercially sourced solids (Sigma […]
(Greiner) in an approximately three-fold and 11-point dilution series (100 μM top concentration) using an ECHO 550 acoustic dispenser (Labcyte). DMSO and 2,4 -PDCA were used as negative and positive controls , respectively .
The final DMSO concentration was kept constant at 0.5%v/v throughout all experiments (using the DMSO backfill option of the acoustic dispenser). Each reaction was performed in technical duplicates in adjacent wells of the assay plates; additionally, assays were performed in three independent technical duplicates on different days using different DMSO inhibitor solutions. […]
dispensed across the inhibitor-containing 384-well assay plates with a multidrop dispenser (ThermoFischer Scientific) at 20°C under an ambient atmosphere. The plates were subsequently centrifuged (1000 rpm, 30 s) and incubated for 15 minutes at 20°C. The Substrate Mixture (25 μL/well), containing 2.0 μM hFX-CP101-119, 200 μM […]
Note: The multidrop dispenser ensured proper mixing of the Enzyme and the Substrate Mixtures which was essential for assay reproducibility. The plates were centrifuged (1000 rpm, 30 s) and af ter incubating for 7 minutes, […]
centrifuged (1000 rpm, 60 s) and analysed by MS.
as §1, §2, §3, §4
9. Determination of kinetic parameters […]
as §5

[5] = test system: glutamic oxaloacetic aminotransferase; parameters: method as in doi:10.1002/1615-4169(200108)343:6/7<692::AID-ADSC692>3.0.CO; details: cited from earlier work
[6] = target: T1, human AspH (His6-AspH315-758); parameters: method as in PMID 32107312; details: cited from earlier work
[7] = 50 nM His6-AspH315–758, 1.0 μM hFX-CP101–119, 3 μM 2OG
[8] = 50 nM His6-AspH315–758, 1.0 μM hFX-CP101–119, 3 μM 2OG, read-out: IC50 (inhibition of AspH)

| K app m [2] | v app max [2] | AspH-catalyzed substrate conversion (hydroxylation of hFX-CP101-119) (human AspH) | time to complete AspH-catalyzed oxidative decarboxylation (NMR) [3] | IC50 (inhibition of AspH) [4, 7] | IC50 [4, 8] | melting point | Structure (SMILES) | also measured |
| --- | --- | --- | --- | --- | --- | --- | --- | --- |
|  |  |  |  |  |  |  | O=C(O)C(=O)N[C@H](Cc1ccccc1)C(=O)O [NOFD, N-oxalyl-D-phenylalanine] | IC50 [1]: ~15.5 µM |
| 0.27 ± 0.04 µM | 0.0069 ± 0.0002 µM/s | > 95% | ≤ 5 min | Inactive | > 50 µM |  | CC(CC(=O)O)C(=O)C(=O)O (stereo not drawn) [compound 16, 3-methyl-2OG] |  |
| 61.9 ± 11.0 µM | 0.004 ± 0.0003 µM/s | ~80% | ≤ 5 min | did not inhibit |  | > 350 °C (dec.) | O=C(O)C(=O)c1ccc(C(=O)O)cc1 [compound 41, 4-carboxyphenylglyoxylic acid] | K app m relative to that for 2OG (times higher) ([2]; ratio to K app m of 2OG): ~47; IC50 (inhibition of AspH) ([4]; 50 nM His6-AspH315–758, 1.0 μM hFX-CP101–119, 3 μM 2OG, listed as C00012): Inactive |
|  |  | < 1% |  |  | ~0.3 µM and 0.3 µM |  | CC(C)(CC(=O)C(=O)O)C(=O)O [compound 34, 4,4-Dimethyl-2OG] | AspH-catalyzed oxidative decarboxylation of the 2OG derivative (NMR) [3]: undergoes slow AspH-catalyzed oxidative decarboxylation; hydroxylation (conversion) of hFX-CP101-119 in the final reaction mixture by SPE-MS ([3]; t = 15 h): ~ 95%; IC50 ([4]; 50 nM His6-AspH315-758, 1.0 μM hFX-CP101-119, read-out: IC50 (ESI Fig. S4)): 0.31 ± 0.1 µM; IC50 ([4]; IC50 at 200 μM 2OG (ESI Table S1), assay concentration of 200 μM 2OG): 6.4 ± 0.4 µM; IC50 ([4]; IC50 at 400 μM 2OG (ESI Table S1), assay concentration of 400 μM 2OG): 10 ± 3.1 µM; IC50 ([4]; IC50 at 600 μM 2OG (ESI Table S1), assay concentration of 600 μM (0.6 mM) 2OG): 18.7 µM and ~18.7 µM; substitution for 2OG in transamination reactions [5]: does not efficiently substitute for 2OG |
|  |  | < 1% |  |  | 0.43 ± 0.05 µM | > 240 °C (dec.) | O=C(O)C(=O)CC(Cc1ccccc1)C(=O)O (stereo not drawn) [compound 32, 4-benzyl-2OG] | AspH-catalyzed oxidative decarboxylation of the 2OG derivative (NMR) [3]: apparently not turned over |
| 1.3 ± 0.3 µM | 0.015 ± 0.0009 µM/s |  | ≤ 5 min |  |  |  | O=C(O)CCC(=O)C(=O)O [2OG, 2-Oxoglutarate, reference compound] | k cat [2]: 0.17 ± 0.03 s⁻¹; K app m (2OG) in the absence of LAA [6]: ~0.6 µM; v app max (2OG) in the absence of LAA [6]: ~0.0168 µM/s; hydroxylation (conversion) of hFX-CP101-119 in the final reaction mixture by SPE-MS ([3]; t = 5 min): > 95% |
|  |  |  |  |  |  |  | O=C(O)c1ccnc(C(=O)O)c1 [2,4-PDCA, pyridine-2,4-dicarboxylate] | IC50 [1]: ~0.03 µM |
|  |  | ~8% |  | Inactive |  | > 260 °C (dec.) | O=C(O)C(=O)c1ccc(C(=O)O)c(F)c1 [compound 43] |  |
